ChEMBL document CHEMBL5620415, “Design, synthesis and anti-hepatic fibrosis activity of novel diphenyl vitamin D receptor agonists” (Eur J Med Chem, 2023)
Active and inactive are the calls of the source. The calls are words filed in the database; no cut-off is given here.

Experiments:
[1] = tested on: Mus musculus; experiment: Anti-fibrotic effect in CCl4-induced hepatic fibrosis C57BL/6 mouse model assessed as inhibition of serum AST level at 500 ug/kg, po five times a week for 2 weeks; type: functional, organism-based; details: dose 500.0 µg/kg
[2] = tested on: Mus musculus; experiment: Anti-fibrotic effect in bile duct ligation (BDL) surgery-induced hepatic fibrosis C57BL/6 mouse model assessed as decrease in inflammatory cell infiltration at 500 ug/kg, po five times a week for 2 weeks by Masson's Trichrome staining based assay; type: functional, organism-based; details: dose 500.0 µg/kg
[3] = tested on: Mus musculus; experiment: Anti-fibrotic effect in CCl4-induced hepatic fibrosis C57BL/6 mouse model assessed as inhibition of Timp-1 expression in liver at 500 ug/kg, po five times a week for 2 weeks by RT-qPCR analysis; type: functional, organism-based; details: dose 500.0 µg/kg
[4] = tested on: Mus musculus; experiment: Anti-fibrotic effect in improving CCl4-induced hepatic fibrosis C57BL/6 mouse model assessed as inhibition of fibronectin (Fn) expression in liver at 500 ug/kg, po five times a week for 2 weeks by RT-qPCR analysis; type: functional, organism-based; details: dose 500.0 µg/kg
[5] = Cytotoxicity against human LX-2 cells by CCK-8 assay; type: toxicity, cell-based
[6] = tested on: Mus musculus; experiment: Anti-fibrotic effect in bile duct ligation (BDL) surgery-induced hepatic fibrosis C57BL/6 mouse model assessed as decrease in inflammatory cell infiltration at 500 ug/kg, po five times a week for 2 weeks by Hematoxylin-Eosin (H&E) staining based assay; type: functional, organism-based; details: dose 500.0 µg/kg
[7] = molecular target: T1, Vitamin D3 receptor (Homo sapiens) (UniProt P11473); experiment: Agonist activity at Vitamin D receptor in human LX-2 cells assessed as transcriptional activity by measuring induction of CYP24A expression at 0.5 uM by RT-qPCR analysis relative to control; type: cell-based; details: filed as agonist
T1 sequence (whole entry): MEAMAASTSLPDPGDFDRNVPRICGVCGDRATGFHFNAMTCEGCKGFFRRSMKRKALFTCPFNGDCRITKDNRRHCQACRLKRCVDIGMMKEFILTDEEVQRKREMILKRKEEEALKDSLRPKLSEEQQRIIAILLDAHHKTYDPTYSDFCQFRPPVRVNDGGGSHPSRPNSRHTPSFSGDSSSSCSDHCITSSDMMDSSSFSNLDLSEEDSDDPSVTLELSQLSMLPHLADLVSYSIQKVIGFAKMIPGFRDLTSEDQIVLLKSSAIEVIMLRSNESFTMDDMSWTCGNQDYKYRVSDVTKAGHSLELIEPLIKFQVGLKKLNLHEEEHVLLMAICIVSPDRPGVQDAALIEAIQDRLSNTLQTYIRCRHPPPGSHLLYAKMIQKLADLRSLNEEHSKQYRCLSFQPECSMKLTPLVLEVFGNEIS

[8] = tested on: Mus musculus; experiment: Anti-fibrotic effect in CCl4-induced hepatic fibrosis C57BL/6 mouse model assessed as reduction the lesions at 500 ug/kg, po five times a week for 2 weeks by Masson's Trichrome staining based assay; type: functional, organism-based; details: dose 500.0 µg/kg
[9] = tested on: Mus musculus; experiment: Anti-fibrotic effect in CCl4-induced hepatic fibrosis C57BL/6 mouse model assessed as decrease in inflammatory cell infiltration at 500 ug/kg, po five times a week for 2 weeks by Masson's Trichrome staining based assay; type: functional, organism-based; details: dose 500.0 µg/kg
[10] = tested on: Mus musculus; experiment: Anti-fibrotic effect in CCl4-induced hepatic fibrosis C57BL/6 mouse model assessed as reduction in hepatic fibrosis lesions at 500 ug/kg, po five times a week for 2 weeks by Masson's Trichrome staining based assay; type: functional, organism-based; details: dose 500.0 µg/kg
[11] = tested on: Mus musculus; experiment: Anti-fibrotic effect in improving CCl4-induced hepatic fibrosis C57BL/6 mouse model assessed as uniform liver parenchyma at 500 ug/kg, po five times a week for 2 weeks by qualitative ultrasound imaging analysis; type: functional, organism-based; details: dose 500.0 µg/kg
[12] = tested on: Mus musculus; experiment: Anti-fibrotic effect in bile duct ligation (BDL) surgery-induced hepatic fibrosis C57BL/6 mouse model assessed as inhibition of Ctgf expression in liver at 500 ug/kg, po five times a week for 2 weeks by RT-qPCR analysis; type: functional, organism-based; details: dose 500.0 µg/kg
[13] = tested on: Mus musculus; experiment: Anti-fibrotic effect in CCl4-induced hepatic fibrosis C57BL/6 mouse model assessed as reduction in hepatic fibrosis lesions at 500 ug/kg, po five times a week for 2 weeks by Hematoxylin-Eosin (H&E) staining based assay; type: functional, organism-based; details: dose 500.0 µg/kg
[14] = tested on: Mus musculus; experiment: Anti-fibrotic effect in bile duct ligation (BDL) surgery-induced hepatic fibrosis C57BL/6 mouse model assessed as reduction the lesions at 500 ug/kg, po five times a week for 2 weeks by Hematoxylin-Eosin (H&E) staining based assay; type: functional, organism-based; details: dose 500.0 µg/kg
[15] = tested on: Mus musculus; experiment: Anti-fibrotic effect in bile duct ligation (BDL) surgery-induced hepatic fibrosis C57BL/6 mouse model assessed as inhibition of Timp-1 expression in liver at 500 ug/kg, po five times a week for 2 weeks by RT-qPCR analysis; type: functional, organism-based; details: dose 500.0 µg/kg
[16] = tested on: Mus musculus; experiment: Anti-fibrotic effect in bile duct ligation (BDL) surgery-induced hepatic fibrosis C57BL/6 mouse model assessed as inhibition of serum total bile acid (TBA) level at 500 ug/kg, po five times a week for 2 weeks; type: functional, organism-based; details: dose 500.0 µg/kg
[17] = tested on: Mus musculus; experiment: Anti-fibrotic effect in improving CCl4-induced hepatic fibrosis C57BL/6 mouse model assessed as inhibition of Ctgf expression in liver at 500 ug/kg, po five times a week for 2 weeks by RT-qPCR analysis; type: functional, organism-based; details: dose 500.0 µg/kg
[18] = tested on: Mus musculus; experiment: Anti-fibrotic effect in CCl4-induced hepatic fibrosis C57BL/6 mouse model assessed as inhibition of proliferation of fibrous tissue at 500 ug/kg, po five times a week for 2 weeks by Masson's Trichrome […] staining based assay; type: functional, organism-based; details: dose 500.0 µg/kg
[19] = tested on: Mus musculus; experiment: Anti-fibrotic effect in CCl4-induced hepatic fibrosis C57BL/6 mouse model assessed as inhibition of serum total bile acid (TBA) level at 500 ug/kg, po five times a week for 2 weeks; type: functional, organism-based; details: dose 500.0 µg/kg
[20] = tested on: Mus musculus; experiment: Anti-fibrotic effect in CCl4-induced hepatic fibrosis C57BL/6 mouse model assessed as inhibition of collagen deposition at 500 ug/kg, po five times a week for 2 weeks by Hematoxylin-Eosin (H&E) staining based assay; type: functional, organism-based; details: dose 500.0 µg/kg
[21] = tested on: Mus musculus; experiment: Anti-fibrotic effect in bile duct ligation (BDL) surgery-induced hepatic fibrosis C57BL/6 mouse model assessed as inhibition of serum AST level at 500 ug/kg, po five times a week for 2 weeks; type: functional, organism-based; details: dose 500.0 µg/kg
[22] = tested on: Mus musculus; experiment: Anti-fibrotic effect in CCl4-induced hepatic fibrosis C57BL/6 mouse model assessed as inhibition of proliferation of fibrous tissue at 500 ug/kg, po five times a week for 2 weeks by Hematoxylin-Eosin (H&E) staining based assay; type: functional, organism-based; details: dose 500.0 µg/kg
[23] = Toxicity in bile duct ligation (BDL) surgery-induced hepatic fibrosis C57BL/6 mouse model assessed as serum hypercalcemia at 500 ug/kg, po five times a week for 2 weeks by calcium assay kit; type: organism-based; details: in vivo, 0.5 mg/kg, 336 h, dose 500 µg/kg
[24] = tested on: Mus musculus; experiment: Anti-fibrotic effect in CCl4-induced hepatic fibrosis C57BL/6 mouse model assessed as reduction the lesions at 500 ug/kg, po five times a week for 2 weeks by Hematoxylin-Eosin (H&E) staining based assay; type: functional, organism-based; details: dose 500.0 µg/kg
[25] = tested on: Mus musculus; experiment: Anti-fibrotic effect in CCl4-induced hepatic fibrosis C57BL/6 mouse model assessed as decrease in inflammatory cell infiltration at 500 ug/kg, po five times a week for 2 weeks by Hematoxylin-Eosin (H&E) staining based assay; type: functional, organism-based; details: dose 500.0 µg/kg
[26] = tested on: Mus musculus; experiment: Anti-fibrotic effect in CCl4-induced hepatic fibrosis C57BL/6 mouse model assessed as inhibition of collagen deposition at 500 ug/kg, po five times a week for 2 weeks by Masson's Trichrome […] staining based assay; type: functional, organism-based; details: dose 500.0 µg/kg

In the case of OCc1ccc(/C=C/c2ccc(OCCCC(F)(F)F)cc2)cc1CO, the Activity [1] is reported as “Active”, the Activity [2] is reported as “Active” and the Activity [3] is reported as “Active”. For the same compound, the Activity [4] was “Active”, the IC50 [5] was > 30 µM and the Activity [6] was “Active”. The Activity [7] was “Active”, the Activity [8] was “Active” and the Activity [9] was “Active”. The Activity [10] was “Active”, the Activity [11] was “Active” and the Activity [12] was “Active”. For the same compound, the Activity [13] was “Active”, the Activity [14] was “Active” and the Activity [15] was “Active”. The Activity [16] was “Active”, the Activity [17] was “Active” and the Activity [18] was “Active”. For the same compound, the Activity [19] was “Active”, the Activity [20] was “Active” and the Activity [21] was “Active”. The Activity [22] was “Active”, the Activity [23] was “Non-Toxic” and the Activity [24] was “Active”. The Activity [25] was “Active” and the Activity [26] was “Active”.
